Test: Dissolution of steroid with alpha-cyclodextrin in aqueous suspension
Type: physicochemical
Details: 120 mg alpha-cyclodextrin added to 5 ml aqueous suspension, room temperature, agitated for several minutes
Protocol: 120 mg of alpha-cyclodextrin was added to 5 ml of an aqueous suspension of dexamethasone at room temperature.

For `C[C@@H]1C[C@H]2[C@@H]3CCC4=CC(=O)C=C[C@]4(C)[C@@]3(F)[C@@H](O)C[C@]2(C)[C@@]1(O)C(=O)CO` [dexamethasone, 9-Fluoro-11β,17,21-trihydroxy-16α-methylpregna-1,4-diene-3,20-dione], the “dissolution of steroid with alpha-cyclodextrin” value was “did not dissolve and remained in suspension”.

Source: patent US4383992A, “Water-soluble steroid compounds” (priority 1982, dated 1983)
